Data as given in publication PMC10178932, “The Antiangiogenic Effect and Ocular Pharmacology of Novel Modified Nonsteroidal Anti-Inflammatory Drugs in the Treatment of Oxygen-Induced Retinopathy” (Journal of Ocular Pharmacology and Therapeutics, 2023).
“Also recorded” adds a separate entry of the source. One block for each compound: values may come before it.

Key:
in vivo = settings: mouse; for Cmax: Retinal Cmax; for Cmax / concentration at 1 h: adult mice; for concentration at 1 h: 1 h after OXT-328 3.5% eye drops (3 drops per eye)
Description: (§3) In these studies, we used adult mice, giving us more ocular tissue to work with, even though differences may exist between adult and neonatal tissues. […] The pupils were dilated with topical 1% tropicamide. At different time points after the last eye drop, the mice were euthanized and their corneas and retinas were collected quickly, immediately frozen in liquid nitrogen, and stored at −80°C until analyzed.
(§4) Briefly, each tissue sample was weighed and 100–300 μL ddH2O was added, depending on tissue weight, and homogenized.

[1] = Uptake and biodistribution of CL-717 in explanted human eyes; assay type: in vitro ADME; settings: explanted human eye, tissues at 1 h, 35.5°C
Description: Human eyes were obtained through the Lions Eye Bank for Long Island, Valley Stream, NY. […] The donor's identity was protected by de-identifying each sample. Following harvesting, they were transported on ice and delivered to the laboratory for study within 2 h after enucleation.
The anterior surface of explanted human eyes was immersed in CL-717 10% solution for 1 or 10 min, followed by washing with ddH2O. The eyes were placed in a Petri dish with their anterior part facing up, and the dish was covered and incubated for 1 h at 35.5°C, the normal in vivo eye temperature.

[2] = system: mice with oxygen-induced retinopathy (OIR); assay: Oxygen-induced retinopathy (OIR) mouse model, AVA and NVA in retinal flat mounts; assay type: in vivo, mouse (C57BL/6); settings: for Avascular area (AVA), percent of total retinal area / Neovascular area (NVA), percent of total retinal area: mean ± SEM
Description: C57BL/6 mice with or without pregnancy (Subline J, specific pathogen-free class) were purchased from Jackson Laboratory, Bar Harbor, ME, and housed in room air (21% oxygen) at 25°C and a 12-h light/12-h dark cycle, with free access to food and water. Animal experiments were designed to provide intralitter control and equal size groups. We used randomization and blinded analysis. After delivery, pups from 1 litter were randomized into groups, and the number of mice in each group was n ≥ 6.
Pup litters together with their mothers were exposed to 75% oxygen from postnatal day 7 (P7) to P12 and returned to room air from P12 to P17.
For retinal flat mounts,[22] on P17, the eyeballs of the mice were enucleated and fixed in 4% paraformaldehyde for 0.5 h. Once the eyeball was fixed, its posterior segment was excised and fixed further in the same solution for 1 h, after which the retina was dissected and fixed again in 4% paraformaldehyde overnight at 4°C. Following this, the retina was washed sequentially as follows: thrice in phosphate-buffered saline (PBS) with 0.1% Tween-20 for 10 min each; in 50% methanol for 10 min; in 100% methanol for 10 min; and thrice in PBS with 0.1% Tween-20 for 10 min each. The retina was then blocked with 1% bovine serum albumin in 0.5% Triton X-100 in PBS for 30 min; incubated with Alexa Fluor 488 conjugated isolectin-B4 overnight at 4°C; washed 4 times in 0.1% Tween-20 in PBS; mounted on a glass slide; and covered with PermaFluorTM aqueous mounting medium.
Retinal flat mounts were imaged with an optical microscope at 10 × magnification, and the avascular area (AVA) and neovascular area (NVA) were delineated with ImageJ, a public domain Java image processing and analysis program. The software provides the user with the ability to determine total image surface area, AVA and NVA. Noncontinguous regions of interest such as AVA and NVA could be outlined and the areas could be summed. Results are expressed as a percent of the total surface area in dimensionless units. The person measuring the AVA and NVA was blinded as to the treatment received by that animal.
Table 1 summarizes the routes of administration of each study drug (OXT-328, Q-922, CL-717). From previous studies, we knew that our lead compound OXT-328 was subject to rapid hydrolysis by carboxylesterases.
(§1) We used a 10% solution of the water-soluble CL-717 in ddH2O with its pH adjusted to 5.0 ± 0.2 with NaOH, and its osmolality to 300 ± 20 mOsm/kg H2O with 18% NaCl. To formulate a 7.15% solution of Q-922 for topical delivery, 71.5 mg of Q-922 was dissolved in 800 μL of a 5% Tween 80/95% normal saline solution, pH 7.0. Additions of 150 μL of 15% solution of polyethylene glycol and 50 μL of 5% solution of Kolliphor EL were made to the Q-922 solution.
(§2) The pH was adjusted to 6.8 and the final volume was 1 mL. Q-922 similar to CL-717 was applied to the ocular surface as 5 μL eye drops when P12 mice were returned to room air. To prepare OXT-328 eye drops, vitamin E TPGS (D-α-tocopheryl polyethylene glycol 1000 succinate) and polyquaternium-1 were dissolved in purified water. OXT-328 (3.5%) was added to this solution, and stirred at 70°C for 30 min. This solution was then centrifuged at 13,200 rpm for 10 min and the supernatant was collected. Mannitol and boric acid were added to the harvested supernatant. After pH adjustment to 6.7 ± 0.2 using NaOH, purified water was added to the final volume. The resulting solution was sterilized by filtration through a 0.22 μm filter.
For intravitreal injections, Q-922 and OXT-328 were formulated as follows: vitamin E TPGS and polyquaternium-1 were dissolved in ddH2O and the respective drug was added, and the solution was stirred at 70°C for 30 min. This solution was then centrifuged at 13,200 rpm for 10 min and the supernatant was collected. Mannitol and boric acid were added to the supernatant to final concentrations of 3.18% (w/v) and 1.2% (w/v), respectively. […]

[3] = system: chicken chorioallantoic membrane (CAM); assay: Ex ovo chicken chorioallantoic membrane (CAM) angiogenesis assay; assay type: in vivo; settings: 72 h
Description: Fertilized chick eggs were obtained from Charles River Labs (North Franklin, CT) and transferred to a specialized incubator with an automatic rotating device (Grumbach, Lyon Technologies, Inc., Brutgerate GmbH, Germany) for 3 days at 37°C and 70% humidity. After incubation, the eggs were cracked, and the embryo was transferred to a 100 × 25 mm sterilized Petri dish in a laminar flow hood. The eggs were incubated for 7 days and the sterilized filter paper disc containing water, 50 μM of OXT-328, or 50 μM of Q-922, or 100 μM of CL-717 was plated on the yolk sac membrane. The filter papers were treated with each reagent twice per day. Three days later, the angiogenic response was expressed as microvessel density in the CAM area determined under a microscope.[25]

[4] = Ocular pharmacokinetics and biodistribution in adult mice (HPLC tissue levels); settings: for concentration at 1 h: cornea, topical
Description: as §3, §4

[5] = set-up: method as in PMID 21955327; settings: systemically administered, rapidly hydrolyzed; cited from earlier work
[6] = Safety: side effects during administration in mice; assay type: in vivo, mouse
Description: as §1, §2

[7] = 10% eye drops, 5 μL 5x/day, P12-P17
[8] = 10% eye drops, 5 μL 5x/day, P12-P17, P17
[9] = adult mice, single 1 μL intravitreal injection of OXT-328 1%
[10] = read-out: Retinal Cmax, adult mice, single 1 μL intravitreal injection of OXT-328 1%, mean ± SEM
[11] = single 1 μL intravitreal injection of 1% on P12, retinas on P17
[12] = 50 μM on filter disc twice per day
[13] = intraperitoneal 100 mg/kg once daily P7-P17
[14] = intraperitoneal 150 mg/kg once daily P7-P17
[15] = intraperitoneal 150 mg/kg once daily P7-P17, P17
[16] = single 1 μL intravitreal injection of 1% on P12, P17

SMILES: CCOP(=O)(NCCN1CCN(C(=O)CC2=C(C)/C(=C/c3ccc([S+](C)[O-])cc3)c3ccc(F)cc32)CC1)OCC (stereo not drawn) [CL-717, (Z)-diethyl 2-(4-(2-(5-fluoro-2-methyl-1-(4-(methylsulfinyl)benzylidene)-1H-inden-3-yl)acetyl)piperazin-1-yl)ethylphosphoramidate]
Tmax (in vivo; topical or ocular): 0.5 h | half-life (in vivo; topical or ocular): 4.7 h | Cmax (in vivo; topical or ocular, 3 eye drops of CL-717 10% on the ocular surface): 2.5 µM | CL-717 level in retina ([1]; ocular surface in 10% solution for 1 min): 12.6 µM | CL-717 level in retina ([1]; ocular surface in 10% solution for 10 min): 46.6 µM | AVA reduction versus vehicle [2, 7]: 65% | NVA reduction versus vehicle [2, 7]: 63% | Avascular area (AVA), percent of total retinal area [2, 8]: 5.8% ± 0.8% | Neovascular area (NVA), percent of total retinal area [2, 8]: 8.3% ± 1.6% | Reduction of average new vessel formation versus control ([3]; 100 μM on filter disc twice per day): 34.2%

SMILES: CCOP(=O)(OCC)OCCCCOC(=O)CC1=C(C)/C(=C/c2ccc([S+](C)[O-])cc2)c2ccc(F)cc21 (stereo not drawn) [OXT-328, phospho-sulindac]
Retinal Tmax [4, 9]: 2 h | Cmax [4, 10]: 516 ± 64.4 µM | half-life (in vivo): 4.8 h | concentration at 1 h (in vivo; Level in the cornea, mean ± SEM): 0 µM | concentration at 1 h (in vivo; Level in the retina, mean ± SEM): 0.4 ± 0.2 µM | Cmax (in vivo; single 1 μL intravitreal injection of OXT-328 1%, mean ± SEM): 516 ± 64 µM | Effect on OIR ([2]; eye drops, data not shown): no effect | Avascular area (AVA), percent of total retinal area [2, 11]: 6.9% ± 2.4% | Neovascular area (NVA), percent of total retinal area [2, 11]: 5.6% ± 1.9% | Level in plasma and many tissues like the eye after systemic administration [5]: essentially undetectable | Reduction of average new vessel formation versus control [3, 12]: 29.3%

SMILES: CCOP(=O)(NCCCCNC(=O)c1ccccc1SC/C=C(\C)CC/C=C(\C)CCC=C(C)C)OCC [Q-922, diethyl 4-(2-((2E,6E)-3,7,11-trimethyldodeca-2,6,10-trienylthio)benzamido)butylphosphoramidate]
Effect on AVA [2, 13]: no significant effect | Effect on NVA [2, 13]: no significant effect | AVA reduction versus vehicle [2, 14]: 28% | NVA reduction versus vehicle [2, 14]: 61% | Avascular area (AVA), percent of total retinal area [2, 15]: 8.4% ± 0.5% | Neovascular area (NVA), percent of total retinal area [2, 15]: 9.5% ± 2.6% | AVA reduction versus vehicle [2, 16]: 75% | NVA reduction versus vehicle [2, 16]: 52% | Avascular area (AVA), percent of total retinal area [2, 11]: 3.5% ± 0.5% | Neovascular area (NVA), percent of total retinal area [2, 11]: 5.2% ± 1.7% | Reduction of average new vessel formation versus control [3, 12]: 41.4% | Side effects on the ocular surface ([6]; Q-922 eye drops (7.15% formulation) applied to the ocular surface of mice): erythema and mild edema on the ocular surface; also recorded: erythema and edema restricted to the cornea and conjunctiva | Time for side effects to subside after treatment was discontinued ([6]; Q-922 eye drops applied to the ocular surface of mice): ≤ 48 h

Other lines, results leading:

Retinal Cmax ([4]; adult mice, single 1 μL intravitreal injection of OXT-328 1%, mean ± SEM): undetectable | concentration at 1 h ([4]; mouse): 3.1 ± 0.6 µM
SMILES: CSc1ccc(/C=C2/C(C)=C(CC(=O)O)c3cc(F)ccc32)cc1 [sulindac sulfide]

Level in the cornea ([4]; adult mice, 1 h after OXT-328 3.5% eye drops (3 drops per eye), mean ± SEM): 3.8 ± 0.7 µM | Retinal Cmax, fold lower than OXT-328 [4, 9]: > 30 fold | Cmax [4, 10]: 14.5 ± 2.4 µM
SMILES: CC1=C(CC(=O)O)c2cc(F)ccc2/C1=C\c1ccc(S(C)(=O)=O)cc1 [sulindac sulfone]

Retinal Cmax, fold lower than OXT-328 [4, 9]: > 30 fold | concentration at 1 h ([4]; mouse): 48.3 ± 7.9 µM | Cmax ([4]; mouse, retina, other: intravitreal injection): 7.1 ± 2.4 µM
SMILES: CC1=C(CC(=O)O)c2cc(F)ccc2/C1=C\c1ccc([S+](C)[O-])cc1 (stereo not drawn) [sulindac, reference compound]
